In PubChem BioAssay AID2060889 (Molecular Pharmacology Branch, DTP, NCI, 2025):

Tested on: LG0567-F671-PDC complex spheroids viability
Test: Anticancer human tumor LG0567-F671-PDC patient-derived lung adenocarcinoma cell line growth inhibition [RAS]
Conditions: for IC50: curve of first compound; for viability, T/C: stronger effect = lower value
In short: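 Multi-cell-type spheroids: tumor cells plus HUVEC endothelial cells and mesenchymal stem cells. RAS-pathway inhibitors were combined with targeted agents, each dosed in half-log steps down from clinical Cmax, or from 10 microM when Cmax was unknown.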

[1] = second compound 0.000949 µM, first compound 0.000949 µM
[2] = second compound 0.000949 µM, first compound 0.003 µM
[3] = second compound 0.000949 µM, first compound 0.00949 µM
[4] = second compound 0.000949 µM, first compound 0.03 µM
[5] = second compound 0.000949 µM, first compound 0.0949 µM
[6] = second compound 0.000949 µM, first compound 0.3 µM
[7] = second compound 0.003 µM, first compound 0.000949 µM
[8] = second compound 0.003 µM, first compound 0.003 µM
[9] = second compound 0.003 µM, first compound 0.00949 µM
[10] = second compound 0.003 µM, first compound 0.03 µM
[11] = second compound 0.003 µM, first compound 0.0949 µM
[12] = second compound 0.003 µM, first compound 0.3 µM
[13] = second compound 0.00949 µM, first compound 0.000949 µM
[14] = second compound 0.00949 µM, first compound 0.003 µM
[15] = second compound 0.00949 µM, first compound 0.00949 µM
[16] = second compound 0.00949 µM, first compound 0.03 µM
[17] = second compound 0.00949 µM, first compound 0.0949 µM
[18] = second compound 0.00949 µM, first compound 0.3 µM
[19] = second compound 0.03 µM, first compound 0.000949 µM
[20] = second compound 0.03 µM, first compound 0.003 µM
[21] = second compound 0.03 µM, first compound 0.00949 µM
[22] = second compound 0.03 µM, first compound 0.03 µM
[23] = second compound 0.03 µM, first compound 0.0949 µM
[24] = second compound 0.03 µM, first compound 0.3 µM
[25] = second compound 0.0949 µM, first compound 0.000949 µM
[26] = second compound 0.0949 µM, first compound 0.003 µM
[27] = second compound 0.0949 µM, first compound 0.00949 µM
[28] = second compound 0.0949 µM, first compound 0.03 µM
[29] = second compound 0.0949 µM, first compound 0.0949 µM
[30] = second compound 0.0949 µM, first compound 0.3 µM
[31] = second compound 0.3 µM, first compound 0.000949 µM
[32] = second compound 0.3 µM, first compound 0.003 µM
[33] = second compound 0.3 µM, first compound 0.00949 µM
[34] = second compound 0.3 µM, first compound 0.03 µM
[35] = second compound 0.3 µM, first compound 0.0949 µM
[36] = second compound 0.3 µM, first compound 0.3 µM
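Further: spheroids exposed to compound for seven days before readout.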
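Wherever IC50 is given: luminescence signal used as a proxy for viable cells.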

Structure (SMILES): C=CC(=O)N1CCN(c2nc(OCC3CCCN3C)nc3c(F)c(-c4nc(N)cc(C)c4C(F)(F)F)c(Cl)cc23)C(C)C1 (stereo unspecified) + CCn1c(-c2cccnc2C(C)OC)c2c3cc(ccc31)N1CCOC(CC(NC(=O)C(C(C)C)N(C)C(=O)C3(F)CCN(C(=O)C#CC(C)(C)N(C)C)CC3)C(=O)N3CCCC(N3)C(=O)OCC(C)(C)C2)C1
- IC50 (second compound 0.000949 µM): < 3160 pM
- IC50 (second compound 0.003 µM): < 3160 pM
- IC50 (second compound 0.00949 µM): < 3160 pM
- IC50 (second compound 0.03 µM): < 3160 pM
- IC50 (second compound 0.0949 µM): < 3160 pM
- IC50 (second compound 0.3 µM): < 3160 pM
- viability, T/C (second compound 0.000949 µM, first compound 0.00316 µM): 13.9%
- viability, T/C (second compound 0.000949 µM, first compound 0.01 µM): 13.6%
- viability, T/C (second compound 0.000949 µM, first compound 0.0316 µM): 13.3%
- viability, T/C (second compound 0.000949 µM, first compound 0.1 µM): 14.4%
- viability, T/C (second compound 0.000949 µM, first compound 0.316 µM): 15.2%
- viability, T/C (second compound 0.000949 µM, first compound 1 µM): 15.5%
- viability, T/C (second compound 0.003 µM, first compound 0.00316 µM): 12.5%
- viability, T/C (second compound 0.003 µM, first compound 0.01 µM): 14.6%
- viability, T/C (second compound 0.003 µM, first compound 0.0316 µM): 13.8%
- viability, T/C (second compound 0.003 µM, first compound 0.1 µM): 13.8%
- viability, T/C (second compound 0.003 µM, first compound 0.316 µM): 19.5%
- viability, T/C (second compound 0.003 µM, first compound 1 µM): 15.4%
- viability, T/C (second compound 0.00949 µM, first compound 0.00316 µM): 15.2%
- viability, T/C (second compound 0.00949 µM, first compound 0.01 µM): 14.1%
- viability, T/C (second compound 0.00949 µM, first compound 0.0316 µM): 12.8%
- viability, T/C (second compound 0.00949 µM, first compound 0.1 µM): 14.5%
- viability, T/C (second compound 0.00949 µM, first compound 0.316 µM): 14.1%
- viability, T/C (second compound 0.00949 µM, first compound 1 µM): 14.4%
- viability, T/C (second compound 0.03 µM, first compound 0.00316 µM): 13.6%
- viability, T/C (second compound 0.03 µM, first compound 0.01 µM): 13.9%
- viability, T/C (second compound 0.03 µM, first compound 0.0316 µM): 14.8%
- viability, T/C (second compound 0.03 µM, first compound 0.1 µM): 13.3%
- viability, T/C (second compound 0.03 µM, first compound 0.316 µM): 13.4%
- viability, T/C (second compound 0.03 µM, first compound 1 µM): 15.1%
- viability, T/C (second compound 0.0949 µM, first compound 0.00316 µM): 12.6%
- viability, T/C (second compound 0.0949 µM, first compound 0.01 µM): 12.8%
- viability, T/C (second compound 0.0949 µM, first compound 0.0316 µM): 11.9%
- viability, T/C (second compound 0.0949 µM, first compound 0.1 µM): 12.3%
- viability, T/C (second compound 0.0949 µM, first compound 0.316 µM): 12.9%
- viability, T/C (second compound 0.0949 µM, first compound 1 µM): 12.4%
- viability, T/C (second compound 0.3 µM, first compound 0.00316 µM): 9.04%
- viability, T/C (second compound 0.3 µM, first compound 0.01 µM): 8.65%
- viability, T/C (second compound 0.3 µM, first compound 0.0316 µM): 10.4%
- viability, T/C (second compound 0.3 µM, first compound 0.1 µM): 13.6%
- viability, T/C (second compound 0.3 µM, first compound 0.316 µM): 12.6%
- viability, T/C (second compound 0.3 µM, first compound 1 µM): 11.6%

Structure (SMILES): CC1(C)CCC(Nc2ncc(C(F)(F)F)c(-c3c[nH]c4c(P(C)(C)=O)c(C#N)ccc34)n2)CN1 (stereo unspecified) + CCn1c(-c2cccnc2C(C)OC)c2c3cc(ccc31)N1CCOC(CC(NC(=O)C(C(C)C)N(C)C(=O)C3(F)CCN(C(=O)C#CC(C)(C)N(C)C)CC3)C(=O)N3CCCC(N3)C(=O)OCC(C)(C)C2)C1
- IC50 (second compound 0.000949 µM): < 949 pM
- IC50 (second compound 0.003 µM): < 949 pM
- IC50 (second compound 0.00949 µM): < 949 pM
- IC50 (second compound 0.03 µM): < 949 pM
- IC50 (second compound 0.0949 µM): < 949 pM
- IC50 (second compound 0.3 µM): < 949 pM
- viability, T/C [1]: 12.7%
- viability, T/C [2]: 12.4%
- viability, T/C [3]: 13.2%
- viability, T/C [4]: 13.5%
- viability, T/C [5]: 14.6%
- viability, T/C [6]: 14.8%
- viability, T/C [7]: 12.1%
- viability, T/C [8]: 13.2%
- viability, T/C [9]: 12.7%
- viability, T/C [10]: 12.8%
- viability, T/C [11]: 15.4%
- viability, T/C [12]: 14.4%
- viability, T/C [13]: 10.9%
- viability, T/C [14]: 11.9%
- viability, T/C [15]: 12.1%
- viability, T/C [16]: 13.2%
- viability, T/C [17]: 14%
- viability, T/C [18]: 15.2%
- viability, T/C [19]: 10.8%
- viability, T/C [20]: 12.1%
- viability, T/C [21]: 12.3%
- viability, T/C [22]: 12.8%
- viability, T/C [23]: 13.3%
- viability, T/C [24]: 13.2%
- viability, T/C [25]: 10.3%
- viability, T/C [26]: 9.49%
- viability, T/C [27]: 11.1%
- viability, T/C [28]: 10.3%
- viability, T/C [29]: 11.1%
- viability, T/C [30]: 10.7%
- viability, T/C [31]: 7.95%
- viability, T/C [32]: 7.87%
- viability, T/C [33]: 7.86%
- viability, T/C [34]: 8.99%
- viability, T/C [35]: 9.92%
- viability, T/C [36]: 10.7%

Structure (SMILES): CCc1c2c(nc3ccc(O)cc13)-c1cc3c(c(=O)n1C2)COC(=O)[C@]3(O)CC + CCn1c(-c2cccnc2C(C)OC)c2c3cc(ccc31)N1CCOC(CC(NC(=O)C(C(C)C)N(C)C(=O)C3(F)CCN(C(=O)C#CC(C)(C)N(C)C)CC3)C(=O)N3CCCC(N3)C(=O)OCC(C)(C)C2)C1
- IC50 (second compound 0.000949 µM): < 949 pM
- IC50 (second compound 0.003 µM): < 949 pM
- IC50 (second compound 0.00949 µM): < 949 pM
- IC50 (second compound 0.03 µM): < 949 pM
- IC50 (second compound 0.0949 µM): < 949 pM
- IC50 (second compound 0.3 µM): < 949 pM
- viability, T/C [1]: 13.8%
- viability, T/C [2]: 13.3%
- viability, T/C [3]: 11.2%
- viability, T/C [4]: 9.37%
- viability, T/C [5]: 6.34%
- viability, T/C [6]: 3.92%
- viability, T/C [7]: 15.5%
- viability, T/C [8]: 13.3%
- viability, T/C [9]: 11.8%
- viability, T/C [10]: 9.3%
- viability, T/C [11]: 6.04%
- viability, T/C [12]: 3.42%
- viability, T/C [13]: 13.6%
- viability, T/C [14]: 14.2%
- viability, T/C [15]: 11.6%
- viability, T/C [16]: 9.12%
- viability, T/C [17]: 6.47%
- viability, T/C [18]: 3.47%
- viability, T/C [19]: 12.1%
- viability, T/C [20]: 11.9%
- viability, T/C [21]: 11.2%
- viability, T/C [22]: 7.2%
- viability, T/C [23]: 4.9%
- viability, T/C [24]: 2.69%
- viability, T/C [25]: 12.8%
- viability, T/C [26]: 9.98%
- viability, T/C [27]: 10.1%
- viability, T/C [28]: 6.64%
- viability, T/C [29]: 4.22%
- viability, T/C [30]: 2.51%
- viability, T/C [31]: 10.2%
- viability, T/C [32]: 8.84%
- viability, T/C [33]: 7.66%
- viability, T/C [34]: 5.32%
- viability, T/C [35]: 3.16%
- viability, T/C [36]: 2.05%
